Patent US6676932B2, “Ultraviolet absorbent, photostabilizer, ultraviolet ray-absorbing composition, photostabilized composition and external preparation for skin” (Shiseido Co., Ltd., priority 2001, dated 2004)

How the values were obtained:
[1] = Stability test in combination with inorganic powder-based ultraviolet shielding agent, sunscreen cream (Test Example 5); type: physicochemical; details: sunscreen cream with inorganic powders; ultraviolet absorbent 10.0 wt %; 50° C. for 2 months; visual observation
Experimental: A sunscreen cream of the following formulation was prepared and stored at 50° C. for 2 months. Under visual observation of the color change, the stability of the inventive pyridazine derivative in combination with inorganic powder-based ultraviolet screening agents commonly in blend as external preparations for skin for the purpose of ultraviolet prevention was examined.
After the ingredient 2 was added to the ingredient 1 to swell the ingredient 2, the ingredients 3 to 11 were mixed with the resulting mixture under heating, for sufficient dispersion and dissolution. While keeping the dispersion at 70° C., a solution of the mixture of the ingredients 12 to 15 was gradually added to the dispersion under thorough emulsification with a homomixer. The resulting mixture was cooled to 30° C. under sufficient stirring to prepare sunscreen creams.

[2] = Drug stabilization effect under daylight exposure (Test Examples 182 to 211); type: physicochemical; parameters: key to Appearance (visual determination): ◯: no change; Δ: almost no change; x: change; details: photostabilizer 0.05 wt %, daylight exposure (80 MJ); for Remaining ratio (%): liquid chromatography
Experimental: For observation of the change of the appearance of each test sample (determination based on visual observation) and the measurement of the remaining ratio by liquid chromatography before and after daylight exposure (80 MJ), the test sample was prepared.

[3] = test system: skin; experiment: Test of skin irritation: continuous application test (Test Example 3 i); type: in vivo, human; details: 10 wt % ultraviolet absorbent, twice daily for 4 weeks
Experimental: (§1) The same samples as in the Test Example 2 were used (at a 10 wt % amount of an ultraviolet absorbent).
Continuous application test was carried out for 20 healthy subjects per one group. An appropriate amount of each of the samples was coated twice daily for 4 weeks. The effects were assessed according to the following assessment standards.
Mean score was calculated for the determination of the effect on the basis of the following standards.
(§2) ◯: mean score of more than 0 to less than 1.
(§3) Δ: mean score of 1 or more to less than 2.
(§4) x: mean score of 2 or more.

[4] = Dye stabilization effect in blend with sequestering agents (Test Examples 212 to 275); type: physicochemical; details: dye Red 227 (Acid Fuchsine D) 0.0001, photostabilizer 0.01, daylight exposure (80 MJ)
Summary of the method: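 Colour difference (ΔE) measured by spectrophotometer in Lab coordinates before and after daylight exposure (80 MJ), relative to pre-exposure values (L1, a1, b1); appearance change also assessed visually.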

[5] = Drug stabilization effect blended with sequestering agent (Test Examples 372 to 391); type: physicochemical; parameters: key to Appearance (visual determination): ◯: no change; Δ: almost no change; x: change; details: drug Salicylic acid 0.1, photostabilizer blend amount 0.03, daylight exposure (80 MJ)
Summary of the method: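 Compositions combining the pyridazine derivative with sequestering agents were exposed to daylight (80 MJ). Appearance was judged visually, and drug remaining ratio was measured by liquid chromatography before and after exposure.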

[6] = test system: skin; experiment: Test of skin irritation: 24-hour occlusion patch test (Test Example 3 ii); type: in vivo, human; details: 10 wt % ultraviolet absorbent
Experimental: as §1
20 Healthy male and female volunteers per one group were carried out in a 24-hour occlusion patch test, using a fin chamber on forearm curves. Assessment was done on the basis of the following assessment standards.
Mean score was determined for the assessment on the basis of the following standards.
as §2, §3, §4

[7] = Stabilization effect on perfume under daylight exposure (Test Examples 92 to 181); type: physicochemical; parameters: key: ◯: no change; Δ: almost no change; x: change; details: daylight exposure (80 MJ)
Experimental: Each test sample was prepared for observation of the change of the odor of the test sample (determined by perfume coordinator) before and after daylight exposure (80 MJ).

[8] = test system: sunburn; experiment: Ultraviolet preventive effect, application test on beach in summer (Test Example 2); type: in vivo, human
Experimental: An application test was carried out on beach in summer. Equal volumes of samples were individually coated on back halves of subjects. After exposure to direct daylight, the degree of sunburn was assessed according to the following assessment standards. Each group consists of 10 subjects.
Prominently effective: none or almost no sunburn symptom was observed.
Effective: light sunburn symptom was observed.
Ineffective: strong sunburn symptom was observed.
⊚: prominently effective or effective for 80% or more of the subjects.
◯: prominently effective or effective for 50% or more to less than 80% of the subjects.
Δ: prominently effective or effective for 30% or more to less than 50% of the subjects.
x: prominently effective or effective for less than 30% of the subjects.
The aqueous phase and the alcohol phase were separately prepared and then mixed together.
Propylene glycol was added to and dissolved in ion exchange water. The resulting solution was retained at 70° C. under heating (aqueous phase). Other ingredients were mixed […]. The resulting mixture was melted under heating and retained at 70° C. (oil phase). The oil phase was added to the aqueous phase, for preliminary emulsification with a homomixer to homogeneity. Under thorough mixing, subsequently, the mixture was cooled to 30° C.

[9] = drug L-ascorbic acid 2-glucoside 2.0 wt %
[10] = drug dibutylhydroxytoluene 0.01 wt %
[11] = drug dl-α-tocopherol 2-L-ascorbic acid phosphate diester potassium salt 0.01 wt %

Color change [1]: no
Remaining ratio (%) [2, 9]: 99.3%
Remaining ratio (%) [2, 10]: 99.0%
Remaining ratio (%) [2, 11]: 99.1%
Remaining ratio (%) ([2]; drug salicylic acid 0.1 wt %): 99.6%
Appearance (visual determination) ([5]; no sequestering agent): Δ
Appearance (visual determination) ([5]; with ethylenediamine tetraacetate trisodium 0.03): ◯
SMILES: Oc1nncc(N2CCCCC2)c1N1CCCCC1 [4,5-Dipiperidino-3-hydroxypyridazine]
Appearance (visual determination) [2, 9]: ◯
Appearance (visual determination) [2, 10]: ◯
Appearance (visual determination) [2, 11]: ◯
Appearance (visual determination) ([2]; drug salicylic acid 0.1 wt %): ◯
Determination (skin reaction, continuous application test) ([3]; cream): ⊚ (mean score of 0)
Determination (skin reaction, continuous application test) ([3]; lotion): ⊚ (mean score of 0)
Δ E ([4]; no sequestering agent): 0.98
Δ E ([4]; with ethylenediaminehydroxyethyl trisodium triacetate 0.02): 0.52
Δ E ([4]; with ethylenediaminetetraacetate trisodium 0.02): 0.72
Δ E ([4]; with sodium metaphosphate 0.02): 0.61
Determination (skin reaction, patch test) ([6]; cream): ⊚ (mean score of 0)
Determination (skin reaction, patch test) ([6]; lotion): ⊚ (mean score of 0)
odor determination ([7]; base perfume Rose, photostabilizer 0.05 wt %): ◯
odor determination ([7]; base perfume Spicy, photostabilizer 0.2 wt %): ◯
odor determination ([7]; base perfume Woody, photostabilizer 0.1 wt %): ◯
odor determination ([7]; natural perfume Lavender oil, photostabilizer 0.1 wt %): ◯
odor determination ([7]; natural perfume Rose oil, photostabilizer 0.05 wt %): ◯
odor determination ([7]; natural perfume Ylang ylang oil, photostabilizer 0.2 wt %): ◯
odor determination ([7]; synthetic perfume Citral, photostabilizer 0.1 wt %): ◯
odor determination ([7]; synthetic perfume Linalool, photostabilizer 0.05 wt %): ◯
odor determination ([7]; synthetic perfume Linalyl acetate, photostabilizer 0.1 wt %): ◯
Ultraviolet prevention effect ([8]; cream, blend amount 0.0005 wt %): Δ (prominently effective or effective for 30% or more to less than 50% of the subjects)
Ultraviolet prevention effect ([8]; cream, blend amount 0.001 wt %): ◯ (prominently effective or effective for 50% or more to less than 80% of the subjects)
Ultraviolet prevention effect ([8]; cream, blend amount 0.01 wt %): ⊚ (prominently effective or effective for 80% or more of the subjects)
Ultraviolet prevention effect ([8]; cream, blend amount 1 wt %): ⊚ (prominently effective or effective for 80% or more of the subjects)
Ultraviolet prevention effect ([8]; cream, blend amount 5 wt %): ⊚ (prominently effective or effective for 80% or more of the subjects)
Ultraviolet prevention effect ([8]; cream, blend amount 10 wt %): ⊚ (prominently effective or effective for 80% or more of the subjects)
Ultraviolet prevention effect ([8]; cream, blend amount 20 wt %): ⊚ (prominently effective or effective for 80% or more of the subjects)
Ultraviolet prevention effect ([8]; lotion, blend amount 0.0005 wt %): Δ (prominently effective or effective for 30% or more to less than 50% of the subjects)
Ultraviolet prevention effect ([8]; lotion, blend amount 0.001 wt %): ◯ (prominently effective or effective for 50% or more to less than 80% of the subjects)
Ultraviolet prevention effect ([8]; lotion, blend amount 0.01 wt %): ⊚ (prominently effective or effective for 80% or more of the subjects)
Ultraviolet prevention effect ([8]; lotion, blend amount 1 wt %): ⊚ (prominently effective or effective for 80% or more of the subjects)
Ultraviolet prevention effect ([8]; lotion, blend amount 5 wt %): ⊚ (prominently effective or effective for 80% or more of the subjects)
Ultraviolet prevention effect ([8]; lotion, blend amount 10 wt %): ⊚ (prominently effective or effective for 80% or more of the subjects)
Ultraviolet prevention effect ([8]; lotion, blend amount 20 wt %): ⊚ (prominently effective or effective for 80% or more of the subjects)
